Measurements taken from patent US11173143B2, “Composition for decreasing serum uric acid level” (ASAHI GROUP HOLDINGS, LTD., priority 2017, dated 2021).

Tested on: serum uric acid
Assay: Serum uric acid level after 8 weeks of daily intake in subjects with hyperuricemia
Type: in vivo, human
Settings: for Serum uric acid level, After 8 weeks: daily intake
Description: Tests were conducted with subjects with hyperuricemia having high serum uric acid levels (7.1 mg/dl or higher) after their written informed consents were obtained. […] Their serum uric acid levels were measured before the intake and after 8 weeks of the intake. A sign test was used as the test of significance.

NCC(=O)O [Gly, glycine]
Amount of change (Average of the group (n=4)): -0.13 mg/dL
Serum uric acid level, Before start of intake (Average of the group (n=4)): 7.73 mg/dL
Serum uric acid level, After 8 weeks (Average of the group (n=4)): 7.60 mg/dL
Amount of change (Subject A): 0.4 mg/dL
Serum uric acid level, Before start of intake (Subject A): 8.9 mg/dL
Serum uric acid level, After 8 weeks (Subject A): 9.3 mg/dL
Amount of change (Subject B): 0.0 mg/dL
Serum uric acid level, Before start of intake (Subject B): 7.8 mg/dL
Serum uric acid level, After 8 weeks (Subject B): 7.8 mg/dL
Amount of change (Subject C): -0.5 mg/dL
Serum uric acid level, Before start of intake (Subject C): 7.1 mg/dL
Serum uric acid level, After 8 weeks (Subject C): 6.6 mg/dL
Amount of change (Subject D): -0.4 mg/dL
Serum uric acid level, Before start of intake (Subject D): 7.1 mg/dL
Serum uric acid level, After 8 weeks (Subject D): 6.7 mg/dL
Change of serum uric acid levels after 8 weeks of continuous intake (in words) (subjects with hyperuricemia): slightly decreased after 8 weeks of continuous intake, but the decreases were not significant
